Read-outs that look alike come from different tables or passages of the source.
What was measured:
[1] = Acute inhalation toxicity (LC50 4 h) of mixed gas based on KS B ISO 10298: 2012; conditions: mixed gas of CF3OCFCF2 and CO2, mixing ratio mol %
Experimental: The mixed gas of the present invention may have a GWP of 1 or less, 0.9 or less, or 0.85 or less. In addition, the mixed gas of the present invention may have a GWP of 0.29 to 1, 0.29 to 0.9, or 0.29 to 0.85. […] In this case, a method for calculating GWP was based on Regulation (EU) NO 517/2014, and LC50, which represents lethal concentration 50% upon inhalation for 4 hours, was based one KS B ISO 10298: 2012.

[2] = Reactivity test with electrodes during dielectric strength test; conditions: room temperature, 1 atm, insulation test chamber
Description: In this case, the reactivity test was to determine a reaction with electrodes upon testing dielectric strength for each mixing ratio of the insulating gases in an enclosed space where no external gas was not allowed to enter (insulation test chamber), at R.T. (room temperature), and at a standard atmospheric pressure of 1 atm. In this case, materials of a sphere electrode are CuCr and Wcu, and materials of a plane electrode are CuCr and SUS.

[3] = Explosion limits of CF3OCFCF2 / CO2 / O2 (triangular diagram)
Description: In this case, the straight line AB may be a straight line connecting point A and point B, the straight line BC may be a straight line connecting point B and point C, the straight line CA may be a straight line connecting point C and point A, and in the point A, (x, y, z) may be (50, 0, 50), in the point B, (x, y, z) may be (5.1, 0, 94.9), and in the point C, (x, y, z) may be (8.2, 80, 11.8). Unlike the case above, when (x, y, z) is present in the triangle ABC (explosion triangle) composed of the points A, B, and C, there may be an explosion hazard due to flammability.
In FIG. 7, the explosion limits indicate the explosion limit line, and is a line connecting the explosion limit points (filled square points). On the other hand, no ignition (hollow rectangle points) indicates a non-ignition point.
In addition, point A in the triangular diagram of FIG. 7 represents upper flammability limit (UFL), and when point A is connected to point C, which is an end point on the explosion limit line, a straight line AC, which is an expected explosion limit (expected line), is formed. […] Meanwhile, the ICR line on the triangle diagram is tangent to the explosion triangle passing through 100% of O2, and the MXC value is 9.3% (C3F6O in CO2).

Vapor pressure = type: physicochemical; conditions: 20° C.
[4] = Acute inhalation toxicity (LC50 4 h); type: in vivo; conditions: inhalation for 4 hours, pure gas
Boiling point = type: physicochemical
[5] = Lower flammability limit (LFL) calculation, KS B ISO 10156: 2017 combustible gas standard; conditions: mixed gas of CF3OCFCF2 and CO2, by mixing ratio of CF3OCFCF2; calculation results
Description: Meanwhile, insulating gases used in electric devices that insulate electricity or extinguish arc are not supposed to belong to the category of combustible gases.
The calculation results of the lower flammability limit (LFL) according to the mixing ratio of the mixed gas of CF3OCFCF2 and CO2 are shown in the following table. In this case, the lower flammability limit is a concentration range in which flame propagation may take place when a combustible gas is mixed with air and ignited, expressed in volume concentration (vol %), and refers to the lowest value in this volume concentration.

[6] = in vivo; cited from earlier work

Compound	LC50 4 h [1]	Reaction with electrodes [2]	Ignition ([3]; C3F6O 8.6, CO2 82.5, O2 8.9 mol %)	Ignition ([3]; C3F6O 8.8, CO2 85.0, O2 6.2 mol %)	MXC value ([3]; C3F6O in CO2) [%]	Upper flammability limit (UFL), point A, C3F6O ([3]; CO2 0, O2 50 mol %) [mol %]	Explosion limit (LEL), C3F6O ([3]; CO2 0.0, O2 94.9 mol %) [mol %]	Explosion limit, C3F6O ([3]; CO2 30.0, O2 64.3 mol %) [mol %]	Explosion limit, C3F6O ([3]; CO2 50.0, O2 43.4 mol %) [mol %]	Explosion limit, C3F6O ([3]; CO2 60.0, O2 33.0 mol %) [mol %]	Explosion limit, C3F6O ([3]; CO2 70.0, O2 22.4 mol %) [mol %]	Explosion limit, C3F6O ([3]; CO2 80.0, O2 11.8 mol %, point of tangency of ICR line) [mol %]	Vapor pressure (Vapor pressure) [psia]	Acute inhalation toxicity (LC50 4 h) [4]	Boiling point (Boiling point) [°C]	Lower flammability limit (LFL) [5] [vol %]	Acute inhalation toxicity (LC50 4 h) [6]
FC(F)=C(F)OC(F)(F)F [CF3OCFCF2, trifluoromethyl trifluorovinyl ether]	15,000 ppmv	reacted with electrodes at atmospheric pressure to form a carbon film	No ignition confirmed at 8.6% C3F6O	No ignition confirmed at 8.8% C3F6O	9.3	50	5.1	5.7	6.6	7.0	7.6	8.2	70.3	10,000-15,000 ppmv	−29	7.5	–
N#CC(F)(C(F)(F)F)C(F)(F)F [(CF3)2CFCN, heptafluoroisobutyronitrile]	–	–	–	–	–	–	–	–	–	–	–	–	36.7	–	−4.7	–	10,000-15,000 ppmv
FS(F)(F)(F)(F)F [SF6]	–	–	–	–	–	–	–	–	–	–	–	–	334	100,000~ ppmv	−63.7	–	–

Reference: patent publication US20260038709A1 (priority 2020, published 2026)
